{"source": "paper PMC5892408", "about": "“Novel dual-function near-infrared II fluorescence and PET probe for tumor delineation and image-guided surgery” (Chemical Science, 2018)", "assay": "Photostability under continuous 808 nm laser illumination", "assay_type": "physicochemical", "conditions": "same conditions as CHS2; 808 nm laser illumination (82 mW cm^-2) for 1 h", "protocol": "Fig. 2 (a) Fluorescence emission of CHS2 under 808 nm excitation; (b) photostability of CHS2 in water, PBS and serum under 808 nm laser illumination (105 mW cm^–2) for 1 h; (c) photostability of ICG vs.CHS2 under 808 nm laser illumination (82 mW cm^–2) for 1 h; (d) cellular toxicity of different concentrations of CHS2 in U87MG cell lines.", "data": [{"smiles": "CC1(C)C(/C=C/C=C/C=C/C=C2\\N(CCCCS(=O)(=O)O)c3ccc4ccccc4c3C2(C)C)=[N+](CCCCS(=O)(=O)[O-])c2ccc3ccccc3c21", "note": "[ICG, indocyanine green]", "values": [{"measurement": "photostability (fluorescence decay)", "value": "~50", "unit": "%"}]}]}
